The results in this text go back to US20050070594A1, “Use of angiotensin II receptor antagonists” (Boehringer Ingelheim International GmbH, priority 2003, published 2005).

The target in assay [1] is T1, ligand binding domain of the human PPARgamma2 transcription factor (Gal4 DNA binding domain fusion) (Homo sapiens, UniProt P37231).
T1 construct: codes for amino acids 205-505 of the human PPARgamma2 transcription factor; expressed in transfected cells
T1 sequence (P37231 205-505): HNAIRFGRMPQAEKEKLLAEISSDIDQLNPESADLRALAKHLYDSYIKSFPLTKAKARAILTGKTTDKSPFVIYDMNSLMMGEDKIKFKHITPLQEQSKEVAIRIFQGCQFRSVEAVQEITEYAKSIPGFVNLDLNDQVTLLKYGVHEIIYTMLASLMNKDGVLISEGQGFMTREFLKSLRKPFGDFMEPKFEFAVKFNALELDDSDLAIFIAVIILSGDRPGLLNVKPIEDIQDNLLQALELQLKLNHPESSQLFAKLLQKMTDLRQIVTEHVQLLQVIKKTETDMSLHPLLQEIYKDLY
The assay can be described thus: Luciferase activity in stably transformed PPARgamma reporter cell line (CHO-K1 clone 11). The class given is cell-based. The conditions noted are these: 24 hours. As for the experimental part: The resulting plasmid pFA-CMV/hPPARgamma2-LBD codes N-terminally of the PPARgamma-LBD in the same reading frame for a Gal4 DNA binding domain. In addition the plasmid codes for a neomycin resistance.
The cell line CHO-K1 (ATCC CCL-61) is cotransfected with the plasmids pFA-CMV/hPPARgamma2-LBD and pFR-Luc (Stratagene). pFR-Luc codes for the luciferase gene under the control of a five-times repeated yeast Gal4 binding site. The transfection is carried out with lipofectamine2000 in accordance with the manufacturer's instructions.
After six days' cultivation the cells are passaged and kept in culture for another 10 days. The resulting neomycin-resistant colonies are picked out under the microscope and transferred into 96 well-dishes and cultured.
The test substances are brought to 100 times the desired concentration with a suitable solvent, e.g. DMSO, and diluted 1:100 with the medium placed in the cell culture plate. The solvent used, e.g. DMSO, is used as the background control in the same concentration.
Luminescence is measured after a five minute wait using a Packard TopCount NXT. The luciferase activity is obtained by integrating the relative luciferase units (RLU) of the first ten seconds after the start of measurement.

Assay [2] concerns PPARgamma. Put plainly: Transcription reporter assay (PPRE-luciferase) in 3T3-L1 adipocytes. The class given is cell-based, mouse. The conditions noted are these: 10 μmol/L, 24 hours. How it is done:
(§1) 3T3-L1 adipocytes (day 4) or PC12W cells are transfected with Lipofectamine 2000 (Invitrogen) in the presence of 1 μg (for 3T3-L1 cells) or 50 ng (for PC12W cells) of a reporter construct, PPARgamma2 and RXRalpha expression vectors and 10 ng of a Renilla Luciferase Reporter control vector. The reporter construct is a fusion of 3xAcyl-CoA oxidase PPAR Response Element (PPRE) with Tk-luciferase. […] The Luciferase Reporter control vector is the plasmid pRL-CMV (Promega).
On the technique in general: Reporter assays use an easily measured gene product as a stand-in for the process of interest.

Assay [3] deals with T2, PPARgamma (Homo sapiens, UniProt P37231).
T2 construct: expressed in transfected cells; host or cells: PC12W cells (AT1-receptor-deficient), transient transfection
T2 sequence (P37231 1-505): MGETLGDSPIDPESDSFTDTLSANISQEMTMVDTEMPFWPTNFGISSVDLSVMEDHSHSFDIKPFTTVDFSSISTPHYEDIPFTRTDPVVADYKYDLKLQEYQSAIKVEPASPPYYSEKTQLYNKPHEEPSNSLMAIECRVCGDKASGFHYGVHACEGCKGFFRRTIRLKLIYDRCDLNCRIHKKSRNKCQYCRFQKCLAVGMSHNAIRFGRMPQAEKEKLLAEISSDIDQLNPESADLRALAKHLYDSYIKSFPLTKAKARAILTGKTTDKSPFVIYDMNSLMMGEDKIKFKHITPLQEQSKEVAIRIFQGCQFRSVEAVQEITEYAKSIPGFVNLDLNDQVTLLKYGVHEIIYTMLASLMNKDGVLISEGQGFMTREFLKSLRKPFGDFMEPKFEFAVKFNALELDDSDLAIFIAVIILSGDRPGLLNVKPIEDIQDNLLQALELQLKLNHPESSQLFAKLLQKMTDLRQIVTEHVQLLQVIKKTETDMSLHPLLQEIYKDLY
T2 sequence (P19793 1-462 partner): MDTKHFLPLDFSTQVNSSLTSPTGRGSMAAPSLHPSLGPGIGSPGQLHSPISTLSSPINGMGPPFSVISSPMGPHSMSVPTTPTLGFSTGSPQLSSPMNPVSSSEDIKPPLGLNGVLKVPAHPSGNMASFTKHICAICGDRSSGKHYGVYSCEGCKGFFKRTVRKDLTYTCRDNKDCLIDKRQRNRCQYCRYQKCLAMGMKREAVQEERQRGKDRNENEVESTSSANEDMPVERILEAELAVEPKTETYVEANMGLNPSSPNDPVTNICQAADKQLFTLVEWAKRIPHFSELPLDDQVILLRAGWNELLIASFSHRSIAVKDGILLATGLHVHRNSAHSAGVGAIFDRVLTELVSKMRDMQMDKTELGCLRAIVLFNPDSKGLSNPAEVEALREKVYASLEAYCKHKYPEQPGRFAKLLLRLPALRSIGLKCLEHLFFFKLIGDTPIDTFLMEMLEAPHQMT
The assay can be described thus: Transcription reporter assay (PPRE-luciferase) in AT1-receptor-deficient PC12W cells. The class given is cell-based. Conditions: 10 μmol/L. How it is done: as §1
PC12W cells are AT1-receptor-deficient.

Turning to `CCCc1nc2c(C)cc(-c3nc4ccccc4n3C)cc2n1Cc1ccc(-c2ccccc2C(=O)O)cc1` [telmisartan], the “luciferase activity (MW)” value in assay [1] (1.00E−05 M) is given as 61397 RLU; in assay [1] (1.00E−06 M), 2859 RLU; in assay [1] (3.00E−05 M) it was 58790 RLU; in assay [1] (3.00E−06 M), 24498 RLU; in assay [1] (3.00E−07 M), 760 RLU. For the same compound, the “induction of the transcriptional activity of PPARgamma, factor” value in the assay with PPARgamma [2] is 3.4±0.9. Further, the “regulation of the PPARgamma activity” value at PPARgamma [3] (PC12W cells in the absence of exogenous PPARgamma2/RXRalpha) is “no regulation”. The “induction of PPARgamma activity, factor” value on PPARgamma [3] (PC12W cells overexpressing PPARgamma2/RXRalpha) is on record as 1.9±0.4.
